Measurements from patent publication US9556165B2 (priority 2012, dated 2017).
Values after ≈ are worked out from the molar mass of the structure shown.

What was measured:
Experiment in all cases: MIC determination, broth microdilution (CLSI)
Format in all cases: cell-based
E. coli ATCC25922 = conditions: for MIC: Escherichia coli, ATCC25922, strain 1
K. pneumoniae 60 = conditions: for MIC: Klebsiella pneumoniae, 60, strain 2
E. cloacae 34654 = conditions: for MIC: Enterobacter cloacae, 34654, strain 3
C. freundii K21/3034 = conditions: for MIC: Citrobacter freundii, K21/3034, strain 4
M. morganii 126/3048 = conditions: for MIC: Morganella morganii, 126/3048, strain 5
P. aeruginosa PAO1 = conditions: for MIC: Pseudomonas aeruginosa, PAO1, strain 6
[1] = tested on: P. aeruginosa 2297 (AmpC wt); conditions: for MIC: Pseudomonas aeruginosa, strain 7
[2] = tested on: P. aeruginosa 2297-con (AmpC derepressed); conditions: for MIC: Pseudomonas aeruginosa, read-out: strain 8 MIC, strain 8
A. baumannii ATCC15308 = conditions: Acinetobacter baumannii, ATCC15308, strain 9
S. maltophilia ICB7569 = conditions: Stenotrophomonas maltophilia, ICB7569, strain 10
S. aureus 133 = conditions: Staphylococcus aureus, 133, strain 11; read-out: strain 11 MIC
M. catarrhalis ICB489 = conditions: for MIC: Moraxella catarrhalis, ICB489, strain 12
H. influenzae ATCC 49247 = conditions: Haemophilus influenzae, ATCC49247, strain 13; read-out: strain 13 MIC
S. pneumoniae 113 = conditions: Streptococcus pneumoniae, 113, strain 14; read-out: strain 14 MIC
B. fragilis 6688 = conditions: Bacteroides fragilis, 6688, strain 15; read-out: strain 15 MIC
E. coli J62 = conditions: for MIC: Escherichia coli, J62, strain 17, read-out: strain 17 MIC
E. coli J62-TEM-3 = conditions: Escherichia coli, J62TEM3, read-out: strain 18 MIC, strain 18
strain 19 = tested on: strain 19
strain 20 = tested on: strain 20
strain 21 = tested on: strain 21

| Compound | MIC (E. coli ATCC25922) [µg/mL] | MIC (K. pneumoniae 60) [µg/mL] | MIC (E. cloacae 34654) [µg/mL] | MIC (C. freundii K21/3034) [µg/mL] | MIC (M. morganii 126/3048) [µg/mL] | MIC (P. aeruginosa PAO1) [µg/mL] | MIC [1] [µg/mL] | MIC [2] [µg/mL] | MIC (A. baumannii ATCC15308) [µg/mL] | MIC (S. maltophilia ICB7569) [µg/mL] | MIC (S. aureus 133) [µg/mL] | MIC (M. catarrhalis ICB489) [µg/mL] | MIC (H. influenzae ATCC 49247) [µg/mL] | MIC (S. pneumoniae 113) [µg/mL] | MIC (B. fragilis 6688) [µg/mL] | MIC (E. coli J62) [µg/mL] | MIC (E. coli J62-TEM-3) [µg/mL] | MIC (strain 19) [µg/mL] | MIC (strain 20) [µg/mL] | MIC (strain 21) [µg/mL] | further results |
| --- | --- | --- | --- | --- | --- | --- | --- | --- | --- | --- | --- | --- | --- | --- | --- | --- | --- | --- | --- | --- | --- |
| C[C@H]1[C@H](NC(=O)/C(=N\OCCOc2ccc(C(=N)N)cc2)c2csc(N)n2)C(=O)N1S(=O)(=O)O [Example 9, (2S,3S)-3-{[(2Z)-2-(2-Amino-1,3-thiazol-4-yl)-2-{[2-(4-carbamimidoylphenoxy)ethoxy]imino}acetyl]amino}-2-methyl-4-oxoazetidine-1-sulfonic acid] | 0.125 (≈ 0.244 µM) | 0.125 (≈ 0.244 µM) | 0.125 (≈ 0.244 µM) | 0.125 (≈ 0.244 µM) | 0.125 (≈ 0.244 µM) | 2 (≈ 3.91 µM) | 2 (≈ 3.91 µM) | 16 (≈ 31.3 µM) | 0.5 (≈ 0.977 µM) | 32 (≈ 62.6 µM) | ≤ 0.063 | ≤ 0.063 | 0.25 (≈ 0.489 µM) | 4 (≈ 7.82 µM) | 8 (≈ 15.6 µM) | 0.25 (≈ 0.489 µM) | 16 (≈ 31.3 µM) | 0.125 (≈ 0.244 µM) | 0.125 (≈ 0.244 µM) | 0.125 (≈ 0.244 µM) |  |
| C[C@H]1[C@H](NC(=O)/C(=N\OCCOc2ccc(C(=N)N)cc2N)c2csc(N)n2)C(=O)N1S(=O)(=O)O [Example 35, (2S,3S)-3-{[(2Z)-2-{[2-(2-Amino-4-carbamimidoylphenoxy)ethoxy]imino}-2-(2-amino-1,3-thiazol-4-yl)acetyl]amino}-2-methyl-4-oxoazetidine-1-sulfonic acid] | 2 (≈ 3.8 µM) | 2 (≈ 3.8 µM) | 4 (≈ 7.6 µM) | 2 (≈ 3.8 µM) | 1 (≈ 1.9 µM) | 16 (≈ 30.4 µM) | 16 (≈ 30.4 µM) | 32 (≈ 60.8 µM) | 2 (≈ 3.8 µM) |  | 0.25 (≈ 0.475 µM) | 1 (≈ 1.9 µM) | 1 (≈ 1.9 µM) | 32 (≈ 60.8 µM) | 16 (≈ 30.4 µM) | 4 (≈ 7.6 µM) | 32 (≈ 60.8 µM) | 2 (≈ 3.8 µM) | 8 (≈ 15.2 µM) | 4 (≈ 7.6 µM) |  |
| C[C@H]1[C@H](NC(=O)/C(=N\OCC(C)(C)Oc2ccc(C(=N)N)cc2)c2csc(N)n2)C(=O)N1S(=O)(=O)O [Example 17, (2S,3S)-3-{[(2Z)-2-(2-Amino-1,3-thiazol-4-yl)-2-{[2-(4-carbamimidoylphenoxy)-2-methyl-propoxy]imino}acetyl]amino}-2-methyl-4-oxoazetidine-1-sulfonic acid] | 2 (≈ 3.71 µM) | 2 (≈ 3.71 µM) | 2 (≈ 3.71 µM) | 1 (≈ 1.85 µM) | ≤ 0.063 | 8 (≈ 14.8 µM) | 16 (≈ 29.7 µM) | 32 (≈ 59.3 µM) | 8 (≈ 14.8 µM) |  | 2 (≈ 3.71 µM) | 2 (≈ 3.71 µM) | 1 (≈ 1.85 µM) | 2 (≈ 3.71 µM) | 4 (≈ 7.41 µM) | 2 (≈ 3.71 µM) | 32 (≈ 59.3 µM) | 1 (≈ 1.85 µM) | 2 (≈ 3.71 µM) | 2 (≈ 3.71 µM) |  |
| C[C@@H]1[C@H](NC(=O)/C(=N\OCCOc2ccc(C(=N)N)cc2)c2csc(N)n2)C(=O)N1S(=O)(=O)O [Example 11, (2R,3S)-3-{[(2Z)-2-(2-Amino-1,3-thiazol-4-yl)-2-{[2-(4-carbamimidoylphenoxy)ethoxy]imino}acetyl]amino}-2-methyl-4-oxoazetidine-1-sulfonic acid] | 0.125 (≈ 0.244 µM) | ≤ 0.125 | ≤ 0.063 | ≤ 0.125 | ≤ 0.063 | 1 (≈ 1.95 µM) | 2 (≈ 3.91 µM) | 16 (≈ 31.3 µM) | 0.5 (≈ 0.977 µM) | 32 (≈ 62.6 µM) | 0.125 (≈ 0.244 µM) | 0.125 (≈ 0.244 µM) | 0.5 (≈ 0.977 µM) | 4 (≈ 7.82 µM) | 8 (≈ 15.6 µM) | 0.25 (≈ 0.489 µM) | 8 (≈ 15.6 µM) | 0.25 (≈ 0.489 µM) | 0.25 (≈ 0.489 µM) | 0.25 (≈ 0.489 µM) |  |
| C[C@H]1[C@H](NC(=O)/C(=N\OCCOc2ccc(C(=N)N)c(O)c2)c2csc(N)n2)C(=O)N1S(=O)(=O)O [Example 2, (2S,3S)-3-{[(2Z)-2-(2-Amino-1,3-thiazol-4-yl)-2-{[2-(4-carbamimidoyl-3-hydroxyphenoxy)ethoxy]imino}acetyl]amino}-2-methyl-4-oxoazetidine-1-sulfonic acid] | 0.125 (≈ 0.237 µM) | 0.125 (≈ 0.237 µM) | 0.25 (≈ 0.474 µM) | 0.125 (≈ 0.237 µM) | ≤ 0.063 | 2 (≈ 3.79 µM) |  |  | 4 (≈ 7.58 µM) | 0.125 (≈ 0.237 µM) | 0.25 (≈ 0.474 µM) | ≤ 0.063 | 0.5 (≈ 0.948 µM) | 16 (≈ 30.3 µM) | 16 (≈ 30.3 µM) | 0.25 (≈ 0.474 µM) | 32 (≈ 60.7 µM) | 0.125 (≈ 0.237 µM) | 0.125 (≈ 0.237 µM) | 0.25 (≈ 0.474 µM) |  |
| C[C@H]1[C@H](NC(=O)/C(=N\OCCOc2nc(C(=N)N)cs2)c2csc(N)n2)C(=O)N1S(=O)(=O)O [Example 31, (2S,3S)-3-{[(2Z)-2-(2-Amino-1,3-thiazol-4-yl)-2-({2-[(4-carbamimidoyl-1,3-thiazol-2-yl)oxy]ethoxy}imino)acetyl]amino}-2-methyl-4-oxoazetidine-1-sulfonic acid] | 0.125 (≈ 0.241 µM) | ≤ 0.063 | 0.25 (≈ 0.482 µM) | ≤ 0.063 | 0.25 (≈ 0.482 µM) | 8 (≈ 15.4 µM) | 8 (≈ 15.4 µM) | 32 (≈ 61.7 µM) | 1 (≈ 1.93 µM) |  | ≤ 0.063 | 0.25 (≈ 0.482 µM) | 0.25 (≈ 0.482 µM) | 8 (≈ 15.4 µM) | 4 (≈ 7.71 µM) | 0.25 (≈ 0.482 µM) | 32 (≈ 61.7 µM) | 0.125 (≈ 0.241 µM) | 0.25 (≈ 0.482 µM) | 0.25 (≈ 0.482 µM) |  |
| C[C@H]1[C@H](NC(=O)/C(=N\OC(COc2ccc(C(=N)N)cc2)C(=O)O)c2csc(N)n2)C(=O)N1S(=O)(=O)O (mixture of isomers) [Example 26A, (2S and 2R)-2-({[(1Z)-1-(2-Amino-1,3-thiazol-4-yl)-2-{[(2S,3S)-2-methyl-4-oxo-1-sulfoazetidin-3-yl]amino}-2-oxoethylidene]amino}oxy)-3-(4-carbamidinoyl-phenoxy)propanoic acid] |  |  |  |  |  |  |  |  | 8 | 16 | ≤ 0.063 |  | 2 | 32 | 8 |  | 32 |  |  |  | strain 1 MIC (E. coli ATCC25922; strain 1): ≦0.063 mg/L; strain 2 MIC (K. pneumoniae 60; strain 2): 0.031 µg/mL; strain 3 MIC (E. cloacae 34654; strain 3): 0.125 µg/mL; strain 4 MIC (C. freundii K21/3034; strain 4): ≦0.063 mg/L; strain 5 MIC (M. morganii 126/3048; strain 5): ≦0.063 mg/L; strain 6 MIC (P. aeruginosa PAO1; strain 6): 1 µg/mL; strain 7 MIC [1]: 2 µg/mL; strain 8 MIC ([2]; strain 8): 8 µg/mL; strain 12 MIC (M. catarrhalis ICB489; strain 12): ≦0.063 mg/L; strain 17 MIC (E. coli J62; strain 17): 0.125 µg/mL; strain 19 MIC (strain 19): ≦0.063 mg/L; strain 20 MIC (strain 20): 0.125 µg/mL; strain 21 MIC (strain 21): 0.125 µg/mL |
